According to patent publication EP4585599A1, “NITROGEN-CONTAINING FUSED RING COMPOUND, INTERMEDIATE THEREOF, PREPARATION METHOD THEREFOR AND USE THEREOF” (Hangzhou Synrx Therapeutics Biomedical Technology Co., Ltd., priority 2022, dated 2024):
Like-named read-outs stand apart in the source and are kept apart here.

Assays:
[1] = molecular target: T1, helicase domain of the Pol θ protein (Homo sapiens, UniProt O75417); assay: Biochemical Activity Assay (ADP Glo Assay) of Pol θ inhibitor, ATPase activity
T1 construct: The helicase domain of the Pol θ protein was purified from insect protein expression system; made in house; host or cells: insect protein expression system
T1 sequence (O75417 102-554 limits assumed): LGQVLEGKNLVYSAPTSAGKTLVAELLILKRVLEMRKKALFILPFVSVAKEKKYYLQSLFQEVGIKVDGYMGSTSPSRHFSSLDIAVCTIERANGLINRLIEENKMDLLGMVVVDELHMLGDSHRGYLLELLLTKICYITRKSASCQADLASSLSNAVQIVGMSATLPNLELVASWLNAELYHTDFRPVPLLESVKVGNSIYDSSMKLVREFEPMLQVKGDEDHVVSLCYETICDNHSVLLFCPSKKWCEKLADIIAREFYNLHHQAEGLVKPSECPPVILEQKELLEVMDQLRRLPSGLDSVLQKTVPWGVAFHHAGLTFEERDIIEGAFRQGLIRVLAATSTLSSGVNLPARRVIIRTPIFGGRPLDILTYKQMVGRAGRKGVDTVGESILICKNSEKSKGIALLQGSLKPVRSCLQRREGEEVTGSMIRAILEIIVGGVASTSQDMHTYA

cells = conditions: Homo sapiens, DLD-1, 240 h
[2] = ADP-Glo assay, ATPase activity of Pol θ helicase domain, ssDNA substrate, read-out: Biochemical assay IC50
[3] = ADP-Glo, ssDNA substrate, 60 min at room temperature, read-out: Biochemical assay IC50
[4] = read-out: Cell viability assay IC50 (nM), CTG assay, CellTiter Glo, read on Day 10, cell line not given
[5] = read-out: Cell viability assay IC50 (nM), CTG on Day 10, cell line not given (method: DLD1 and DLD1^-/- cells)
[6] = read-out: Cell viability assay IC50 (nM)

IC50 [1, 2] [nM]	IC50 [1, 3] [nM]	Compound	IC50 (cells; [4]) [nM]	IC50 (cells; [5]) [nM]	IC50 ([1]; Biochemical assay IC50 (nM)) [nM]	IC50 (cells; [6]) [nM]	IC50 ([1]; Biochemical assay IC50 (nM), ADP-Glo assay, ATPase activity of Pol θ helicase domain, ssDNA substrate) [nM]	IC50 ([1]; read-out: Biochemical assay IC50) [nM]
2.62	< 50	COc1cnc(Cl)cc1-c1cc(C)ncc1C(=O)Nc1nc2cnc(N3CCC(O)CC3)nc2s1 [Example 52]	20.7	< 100				
1.09	< 50	COc1cnc(Cl)c(F)c1-c1cc(C)ncc1C(=O)Nc1nc2ncc(C3=CCC(O)CC3)cc2s1 (stereo not drawn) [Example 8]	24.2	< 100				
6.18	< 50	COc1cnc(Cl)cc1-c1cc(C)ncc1C(=O)Nc1nc2ncc(N3CCC(O)(CO)CC3)cc2s1 [Example 106, 2'-chloro-N-(6-(4-hydroxy-4-(hydroxymethyl)piperidin-1-yl)thiazolo[4,5-b]pyridin-2-yl) -5'-methoxy-6-methyl-[4,4'-bipyridine]-3-carboxamide]	450	100 to 500				
25.4	< 50	COc1cnc(Cl)cc1-c1cc(C)ncc1C(=O)Nc1nc2ncc(N3CCCC(O)CC3)cc2s1 (stereo not drawn) [Example 64]	681	500 to 1000				
5.75		COc1cnc(Cl)cc1-c1cc(C)ncc1C(=O)Nc1nc2ncc(-c3c(C)cnn3C)nc2s1 [Example 160]	82.5					
25.1		COc1cnc(Cl)cc1-c1cc(C)ncc1C(=O)Nc1nc2c(C#N)cc(-c3c(C)cnn3C)cc2s1 [Example 166]	68.1					
14.3	< 50	COc1cnc(Cl)cc1-c1cc(C)ncc1C(=O)Nc1nc2ncc(N3CCC4(CC(O)C4)C3)cc2s1 (stereo not drawn) [Example 99]	138	100 to 500				
2.84	< 50	COc1cnc(Cl)cc1-c1cc(C)ncc1C(=O)Nc1nc2ncc(C3=CCC(NC(C)=O)CC3)cc2s1 (stereo not drawn) [Example 23]	15.3	< 100				
8.57		COc1cnc(C(F)F)cc1-c1cc(C)ncc1C(=O)Nc1nc2cnc(N3CCOCC3=O)nc2s1 [Example 204]	541					
72.1	50 to 200	COc1cnc(Cl)cc1-c1cc(C)ncc1C(=O)Nc1nc2ncc(-c3cnc4[nH]ccc4c3)cc2s1 [Example 19]	261	100 to 500				
3.35	< 50	COc1cnc(Cl)cc1-c1cc(C)ncc1C(=O)Nc1nc2ncc(C3=CC(O)CC3)cc2s1 (stereo not drawn) [Example 79]	92.6	< 100				
2.51		COc1cnc(Cl)cc1-c1cc(C)ncc1C(=O)Nc1nc2cnc(-c3c(C)nn(C)c3C)cc2s1 [Example 163]	3.41					
17.6		COc1cnc(Cl)cc1-c1cc(C)ncc1C(=O)Nc1nc2ccc(-c3c(C)nnn3C)nc2s1 [Example 147, 2'-chloro-N-(5-(1,4-dimethyl-1H-1,2,3-triazol-5-yl)thiazolo[5,4-b]pyridin-2-yl)-5'-methoxy-6-methyl-[4,4'-bipyridine]-3-carboxamide]	82.5					
236	200 to 500	COc1cnc(Cl)cc1-c1cc(C)ncc1C(=O)Nc1nc2ccc(C3CCN(C)CC3)nc2s1 [Example 36]	584	500 to 1000				
7.35		COc1cnc(Cl)cc1-c1cc(C)ncc1C(=O)Nc1nc2cc(F)c(N3CCC(O)CC3)nc2s1 [Example 126]	9.26					
251	200 to 500	COc1cnc(Cl)cc1-c1cc(C)ncc1C(=O)Nc1nc2cc(C3CCC(O)CC3)cnc2s1 (stereo not drawn) [Example 35]	3290	> 1000				
		COc1cnc(Cl)cc1-c1cc(C)ncc1C(=O)Nc1nc2nc(OC)c(-c3c(C)cnn3C)cc2s1 [Example 177, 2'-chloro-N-(6-(1,4-dimethyl-1H-parazol-5-yl)-5-methoxythiazolo[4,5-b]pyridin-2-yl)-5' -methoxy-6-methyl-[4,4'-bipyridine]-3-carboxamide]			13.6	121		
6.51		COc1cnc(Cl)c(F)c1-c1cc(C)ncc1C(=O)Nc1nc2cnc(N3CCC(O)CC3)nc2s1 [Example 200]	7.07					
1.67	< 50	CNC1CCN(c2cnc3nc(NC(=O)c4cnc(C)cc4-c4cc(Cl)ncc4OC)sc3c2)CC1 [Example 73]	209	100 to 500				
23.6		COc1cnc(Cl)c(F)c1-c1cc(C)ncc1C(=O)Nc1nc2cc(F)c(N3CCC(F)(F)CC3)nc2s1 [Example 143]	43					

IC50 [1, 2] [nM]	IC50 [1, 3] [nM]	Compound	IC50 (cells; [4]) [nM]	IC50 (cells; [5]) [nM]	IC50 ([1]; Biochemical assay IC50 (nM)) [nM]	IC50 (cells; [6]) [nM]	IC50 ([1]; Biochemical assay IC50 (nM), ADP-Glo assay, ATPase activity of Pol θ helicase domain, ssDNA substrate) [nM]	IC50 ([1]; read-out: Biochemical assay IC50) [nM]
		COc1cnc(Cl)cc1-c1cc(C)ncc1C(=O)Nc1nc2nnc(C3=CCC(O)CC3)cc2s1 (stereo not drawn) [Example 183, 2'-chloro-N-(3-(4-hydroxycyclohexyl-1-en-1-yl)thiazolo[4,5-c]pyridazin-6-yl)-5'-methox y-6-methyl-[4,4'-bipyridine]-3-carboxamide]			3.41	1260		
3.48	< 50	COc1cnc(Cl)cc1-c1cc(C)ncc1C(=O)Nc1nc2ncc(C3=CCC(N)CC3)cc2s1 (stereo not drawn) [Example 21]	76.4	< 100				
11.7		COc1cnc(Cl)cc1-c1cc(N2CCN(C)C3(CC3)C2=O)ncc1C(=O)Nc1nc2cnc(-c3c(C)nnn3C)cc2s1 [Example 196, 2'-chloro-N-(6-(1,4-dimethyl-1H-1,2,3-triazol-5-yl)thiazolo[4,5-c]pyridin-2-yl)-5'-methoxy-6-(4-methyl-8-oxo-4,7-diazaspiro[2.5]oct-7-yl)-[4,4'-bipyridine]-3-carboxamide]	3.83					
20.7		COc1cnc(Cl)cc1-c1cc(C)ncc1C(=O)Nc1nc2cc(F)c(-c3c(C)nnn3C)nc2s1 [Example 227, 2'-chloro-N-(5-(1,4-dimethyl-1H-1,2,3-triazol-5-yl)-6-fluorothiazolo[5,4-b]pyridin-2-yl) -5'-methoxy-6-methyl-[4,4'-bipyridine]-3-carboxamide]	112					
33.1	< 50	COc1cnc(Cl)cc1-c1cc(C)ncc1C(=O)Nc1nc2ccc(C3=CCN(C)CC3)nc2s1 [Example 10]	446	100 to 500				
2.96	< 50	COc1cnc(Cl)cc1-c1cc(C)ncc1C(=O)Nc1nc2ncc(N3CCC(CO)CC3)cc2s1 [Example 98, 2'-chloro-N-(6-(4-(hydroxymethyl)piperidin-1-yl)thiazolo[4,5-b]pyridin-2-yl)-5'-methox y-6-methyl-[4,4'-bipyridine]-3-carboxamide]	10.6	< 100				
3.94	< 50	COc1cnc(Cl)cc1-c1cc(C)ncc1C(=O)Nc1nc2ncc(-n3ccccc3=O)cc2s1 [Example 25]	138	100 to 500				
		COc1cnc(Cl)cc1-c1cc(C)ncc1C(=O)Nc1nc2c(s1)CN(C(=O)c1ccccc1)CC2 [Example 191, N-(5-benzoyl-4.5.6,7-tetrahydrothiazolo[5.4]pyridin-2-yl)-2'-chloro-5'-methoxy-6-methyl-[4,4'-bipyridine]-3-carboxamide]				521	29.3	
		COc1cnc(C(F)F)cc1-c1cc(C)ncc1C(=O)Nc1nc2cnc(N3CCC(O)CC3)nc2s1 [Example 198]				23.3		4.23
2.75		COc1cnc(Cl)cc1-c1cc(C)ncc1C(=O)Nc1nc2nnc(-c3c(C)cnn3C)cc2s1 [Example 159]	1170					
3.74		COc1cnc(Cl)cc1-c1cc(C)ncc1C(=O)Nc1nc2cnc(-c3c(Cl)cnn3C)cc2s1 [Example 167]	5.41					
6.92		COc1cnc(Cl)cc1-c1cc(C)ncc1C(=O)Nc1nc2ncc(N3CC4(CC(O)C4)C3)nc2s1 [Example 133]	26.1					
3.98		COc1cnc(Cl)c(F)c1-c1cc(C)ncc1C(=O)Nc1nc2ccc(-c3c(C)nnn3C)cc2s1 [Example 224]	3.16					
		COc1cnc(Cl)cc1-c1cc(C)ncc1C(=O)Nc1nc2cc3c(cc2s1)N(c1ccnn1C)CCO3 [Example 194, 2'-chloro-5'-methoxy-6-methyl-N-(8-(1-methyl-1H-parazol-5-yl)-7,8-dihydro-6H-thiazolo[5',4':4,5]benzo[1,2-b][1,4]oxazin-2-yl)-[4,4'-bipyridine]-3-carboxamide]			22.9	65.6		
63.1		COC(=O)c1cc(-c2c(C)cnn2C)cc2sc(NC(=O)c3cnc(C)cc3-c3cc(Cl)ncc3OC)nc12 [Example 162]	233					
3.11		COc1cnc(C(F)F)cc1-c1cc(C)ncc1C(=O)Nc1nc2cnc(-c3c(C)nnn3C)c(F)c2s1 [Example 215, 2'-(difluoromethyl)-N-(6-(1,4-dimethyl-1H-1,2,3-triazol-5-yl)-7-fluorothiazolo[4,5-c]pyridin-2-yl)-5'-methoxy-6-methyl-[4,4'-bipyridine]-3-carboxamide]	2.92					
2.67	< 50	COc1cnc(Cl)cc1-c1cc(C)ncc1C(=O)Nc1nc2ncc(C3=COCCO3)cc2s1 [Example 86]	23.3	< 100				
8.94	< 50	COc1cnc(Cl)cc1-c1cc(C)ncc1C(=O)Nc1nc2ncc(C(C)(C)O)cc2s1 [Example 95, 2'-chloro-N-(6-(2-hydroxypropan-2-yl)thiazolo[4,5-b]pyridin-2-yl)-5'-methoxy-6-methyl-[4,4'-bipyridine]-3-carboxamide]	383	100 to 500				
9.5	< 50	COc1cnc(Cl)cc1-c1cc(C)ncc1C(=O)Nc1nc2cnc(N3CCC(O)CC3)cc2s1 [Example 51]	85.8	< 100				
